Tested on: IL-6
Assay: Human monocyte assay, LPS-stimulated IL-6
Type: cell-based
Conditions: Monocyte; human monocytes, 1 μg/ml LPS, 5 hours
Description: The assay was designed as in the reference, Physiol.
Peripheral blood mononuclear cells (hPBMC) were harvested from human blood and suspended in RPMI 1640 culture medium containing 10% FCS, 100 U/mL penicillin and […] streptomycin (assay medium). Monocytes in the hPBMCs were counted using a Coulter Counter following which the cells were resuspended at 2×10^5 monocytes/mL. A cell suspension containing 2×10^4 monocytes was aliquoted per well of a 96-well plate. Subsequently, the hPBMCs were incubated for 4-5 hours at 37° C., 5% CO2 (During the incubation, the monocytes adhered to the bottom of 96-well plastic culture plate). Following the incubation, the non-adherent lymphocytes were washed with assay medium and the adherent monocytes re-fed with assay medium. After a 48-hour incubation period (37° C., 5% CO2), monocytes were pretreated with various concentrations of representative compounds of present invention (refer to table 6 and 7) (prepared in DMSO) or vehicle (0.5% DMSO) for 30 minutes and stimulated with 1 μg/ml LPS (Escherchia coli 0111:B4, Sigma Chemical Co., St. Louis, Mo.). The incubation was continued for 5 hours at 37° C., 5% CO2. Supernatants were harvested, assayed for IL-6 and TNF-α by ELISA as described by the manufacturer (BD Biosciences, USA). Dexamethasone (10 μM) was used as standard for this assay. […] Biological results for both IL-6 and TNFα are indicated in Table 6 and Table 7 respectively.

Structure (SMILES)	IC50 [µM]
CN(/N=C/c1cnc2ccc(-c3cccnc3)cn12)S(=O)(=O)c1ccc(F)c(F)c1F [Example 34, (E)-2,3,4-Trifluoro-N-methyl-N′-((6-(pyridin-3-yl)imidazo[1,2-a]pyridin-3-yl)methylene)benzenesulfonohydrazide]	0.001 to 5
CN(/N=C/c1cnc2ccc(-c3cccnc3)cn12)S(=O)(=O)c1cc(F)c(Br)cc1F [Example 35, (E)-4-bromo-2,5-difluoro-N-methyl-N′-((6-(pyridin-3-yl)imidazo[1,2-a]pyridin-3-yl)methylene)benzenesulfonohydrazide]	0.001 to 5
CN(/N=C/c1cnc2ccc(-c3cccnc3)cn12)S(=O)(=O)c1ccc(F)cc1Br [Example 36, (E)-2-bromo-4-fluoro-N-methyl-N′-((6-(pyridin-3-yl)imidazo[1,2-a]pyridin-3-yl)methylene)benzenesulfonohydrazide]	≥ 5
CN(/N=C/c1cnc2ccc(-c3cccnc3)cn12)S(=O)(=O)c1cccc(Cl)c1 [Example 39, (E)-3-chloro-N-methyl-N′-((6-(pyridin-3-yl)imidazo[1,2-a]pyridin-3-yl)methylene)benzenesulfonohydrazide]	0.001 to 5
CN(/N=C/c1cnc2ccc(-c3cccnc3)cn12)S(=O)(=O)c1ccc(C(F)(F)F)cc1Cl [Example 40, (E)-2-chloro-N-methyl-N′-((6-(pyridin-3-yl)imidazo[1,2-a]pyridin-3-yl)methylene)-4-(trifluoromethyl)benzenesulfonohydrazide]	0.001 to 5
CN(/N=C/c1cnc2ccc(-c3cccnc3)cn12)S(=O)(=O)c1ccc(F)cc1Cl [Example 41, (E)-2-chloro-4-fluoro-N-methyl-N′-((6-(pyridin-3-yl)imidazo[1,2-a]pyridin-3-yl)methylene) benzenesulfonohydrazide]	0.001 to 5
Cc1nc(S(=O)(=O)N(C)/N=C/c2cnc3ccc(-c4cccnc4)cn23)cn1C [Example 42, (E)-N, 1,2-trimethyl-N′-((6-(pyridin-3-yl)imidazo[1,2-a]pyridin-3-yl)methylene)-1H-imidazole-4-sulfonohydrazide]	≥ 5
Cc1cc(S(=O)(=O)N(C)/N=C/c2cnc3ccc(-c4cccnc4)cn23)c(C)cc1Cl [Example 43, (E)-4-chloro-N, 2,5-trimethyl-N′-((6-(pyridin-3-yl)imidazo[1,2-a]pyridin-3-yl)methylene) benzenesulfonohydrazide]	≥ 5
CN(/N=C/c1cnc2ccc(-c3cccnc3)cn12)S(=O)(=O)c1cc(F)ccc1F [Example 44, (E)-2,5-difluoro-N-methyl-N′-((6-(pyridin-3-yl)imidazo[1,2-a]pyridin-3-yl)methylene) benzenesulfonohydrazide]	0.001 to 5
CN(/N=C/c1cnc2ccc(-c3cccnc3)cn12)S(=O)(=O)c1ccc(I)cc1 [Example 46, (E)-4-Iodo-N-methyl-N′-((6-(pyridin-3-yl)imidazo[1,2-a]pyridin-3-yl)methylene)benzenesulfonohydrazide]	≥ 5
CN(/N=C/c1cnc2ccc(-c3cccnc3)cn12)S(=O)(=O)c1ccc(-c2cc(C(F)(F)F)ccc2F)cc1 [Example 47, (E)-2′-Fluoro-N-methyl-N′-((6-(pyridin-3-yl)imidazo[1,2-a]pyridin-3-yl)methylene)-5′-(trifluoromethyl)biphenyl-4-sulfonohydrazide]	≥ 5
Cc1ccc(C)c(S(=O)(=O)N(C)/N=C/c2cnc3ccc(-c4cccnc4)cn23)c1 [Example 50, (E)-N, 2,5-trimethyl-N′-((6-(pyridin-3-yl)imidazo[1,2-a]pyridin-3-yl)methylene)benzenesulfonohydrazide]	0.001 to 5
CN(/N=C/c1cnc2ccc(-c3cccnc3)cn12)S(=O)(=O)c1cc(Br)ccc1Br [Example 51, (E)-2,5-dibromo-N-methyl-N′-((6-(pyridin-3-yl)imidazo[1,2-a]pyridin-3-yl)methylene) benzenesulfonohydrazide]	0.001 to 5
COc1ccc(OC)c(S(=O)(=O)N(C)/N=C/c2cnc3ccc(-c4cccnc4)cn23)c1 [Example 52, (E)-2,5-dimethoxy-N-methyl-N′-((6-(pyridin-3-yl)imidazo[1,2-a]pyridin-3-yl)methylene) benzenesulfonohydrazide]	0.001 to 5
COc1ccc(Cl)cc1S(=O)(=O)N(C)/N=C/c1cnc2ccc(-c3cccnc3)cn12 [Example 55, (E)-5-chloro-2-methoxy-N-methyl-N′-((6-(pyridin-3-yl)imidazo[1,2-a]pyridin-3-yl)methylene) benzenesulfonohydrazide]	0.001 to 5
CN(/N=C/c1cnc2ccc(-c3cccnc3)cn12)S(=O)(=O)c1ccc(Br)cc1OC(F)(F)F [Example 56, (E)-4-bromo-N-methyl-N′-((6-(pyridin-3-yl)imidazo[1,2-a]pyridin-3-yl)methylene)-2-(trifluoromethoxy)benzenesulfonohydrazide]	0.001 to 5
CN(/N=C/c1cnc2ccc(-c3cccnc3)cn12)S(=O)(=O)c1cc(C(F)(F)F)ccc1Br [Example 57, (E)-2-bromo-N-methyl-N′-((6-(pyridin-3-yl)imidazo[1,2-a]pyridin-3-yl)methylene)-5-(trifluoromethyl)benzenesulfonohydrazide]	0.001 to 5
CN(/N=C/c1cnc2ccc(-c3cccnc3)cn12)S(=O)(=O)c1ccccc1[N+](=O)[O-] [Example 58, (E)-N-methyl-2-nitro-N′-((6-(pyridin-3-yl)imidazo[1,2-a]pyridin-3-yl)methylene)benzenesulfonohydrazide]	0.001 to 5
CN(/N=C/c1cnc2ccc(-c3cccnc3)cn12)S(=O)(=O)c1ccccc1S(C)(=O)=O [Example 59, (E)-N-methyl-2-(methylsulfonyl)-N′-((6-(pyridin-3-yl)imidazo[1,2-a]pyridin-3-yl)methylene) benzenesulfonohydrazide]	0.001 to 5
CN(/N=C/c1cnc2ccc(-c3cccnc3)cn12)S(=O)(=O)c1ccccc1Oc1ccccc1 [Example 60, (E)-N-methyl-2-phenoxy-N′-((6-(pyridin-3-yl)imidazo[1,2-a]pyridin-3-yl)methylene)benzenesulfonohydrazide]	0.001 to 5
CCCCCCS(=O)(=O)N(C)/N=C/c1cnc2ccc(-c3cccnc3)cn12 [Example 61, (E)-N-methyl-N′-((6-(pyridin-3-yl)imidazo[1,2-a]pyridin-3-yl)methylene) hexane-1-sulfonohydrazide]	0.001 to 5
CN(/N=C/c1cnc2ccc(-c3cccnc3)cn12)S(=O)(=O)c1cc(C(F)(F)F)ccc1N1CCOCC1 [Example 62, (E)-N-methyl-2-morpholino-N′-((6-(pyridin-3-yl)imidazo[1,2-a]pyridin-3-yl)methylene)-5-(trifluoromethyl)benzenesulfonohydrazide]	0.001 to 5
Cc1ccc(S(C)(=O)=O)cc1S(=O)(=O)N(C)/N=C/c1cnc2ccc(-c3cccnc3)cn12 [Example 63, (E)-N,2-dimethyl-5-(methylsulfonyl)-N′-((6-(pyridin-3-yl)imidazo[1,2-a]pyridin-3-yl)methylene) benzenesulfonohydrazide]	0.001 to 5
CN(/N=C/c1cnc2ccc(-c3cccnc3)cn12)S(=O)(=O)c1ccccc1Br [Example 64, (E)-2-bromo-N-methyl-N′-((6-(pyridin-3-yl)imidazo[1,2-a]pyridin-3-yl)methylene) benzenesulfonohydrazide]	0.001 to 5
CN(/N=C/c1cnc2ccc(-c3cccnc3)cn12)S(=O)(=O)c1ccc(N2CCOCC2)nc1 [Example 66, (E)-N-methyl-6-morpholino-N′-((6-(pyridin-3-yl)imidazo[1,2-a]pyridin-3-yl)methylene) pyridine-3-sulfonohydrazide]	0.001 to 5
COC(=O)c1ccc(S(=O)(=O)N(C)/N=C/c2cnc3ccc(-c4cccnc4)cn23)n1C [Example 67, (E)-Methyl 1-methyl-5-(1-methyl-2-((6-(pyridin-3-yl)imidazo[1,2-a]pyridin-3-yl)methylene) hydrazinylsulfonyl)-1H-pyrrole-2-carboxylate]	0.001 to 5
CN1CCOc2cc(S(=O)(=O)N(C)/N=C/c3cnc4ccc(-c5cccnc5)cn34)cnc21 [Example 68, (E)-N,4-dimethyl-N′-((6-(pyridin-3-yl)imidazo[1,2-a]pyridin-3-yl)methylene)-3,4-dihydro-2H-pyrido[3,2-b][1,4]oxazine-7-sulfonohydrazide]	0.001 to 5
CN(/N=C/c1cnc2ccc(-c3cccnc3)cn12)S(=O)(=O)c1cccnc1 [Example 69, (E)-N-methyl-N′-((6-(pyridin-3-yl)imidazo[1,2-a]pyridin-3-yl)methylene) pyridine-3-sulfonohydrazide]	0.001 to 5
CN(/N=C/c1cnc2ccc(-c3cccnc3)cn12)S(=O)(=O)c1ccc(Oc2ccccc2)cc1 [Example 70, (E)-N-methyl-4-phenoxy-N′-((6-(pyridin-3-yl)imidazo[1,2-a]pyridin-3-yl)methylene)benzenesulfonohydrazide]	0.001 to 5
CN(/N=C/c1cnc2ccc(-c3cccnc3)cn12)S(=O)(=O)c1ccc(-c2ccccc2)cc1 [Example 72, (E)-N-methyl-N′-((6-(pyridin-3-yl)imidazo[1,2-a]pyridin-3-yl)methylene)biphenyl-4-sulfonohydrazide]	≥ 5

Reference: patent US8741932B2, “Imidazopyridine derivatives” (Piramal Enterprises Limited, priority 2009, dated 2014)
